Source: the supplement of paper PMC10307832

Experiments:
Test in all cases: relative viability (nuclei count vs DMSO), 5 days (fraction); higher = more cells survive
NCI-H460 = test system: NCI-H460
In short: (§1)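 Lung cancer cell lines were pin-tool dosed in 1536-well plates on the day after seeding, with either a lone drug or a fixed anchor-drug dose plus five library-drug doses (not always all listed) in √10 steps. Nuclei were counted on 4× images after 5 days. Relative viability is the ratio of treated-well to vehicle-well nuclei counts, with each value a median of duplicate plates.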

NCI-H1915 = test system: NCI-H1915
In short: as §1

LCLC-97TM1 = test system: LCLC-97TM1
In short: as §1

SK-LU-1 = test system: SK-LU-1
In short: as §1

A-427 = test system: A-427
In short: as §1

LOU-NH91 = test system: LOU-NH91
In short: as §1

NCI-H2126 = test system: NCI-H2126
In short: as §1

NCI-H441 = test system: NCI-H441
In short: as §1

BEN = test system: BEN
In short: as §1

NCI-H322M = test system: NCI-H322M
In short: as §1

NCI-H1755 = test system: NCI-H1755
In short: as §1

NCI-H1944 = test system: NCI-H1944
In short: as §1

Compound `O=c1[nH]c2ccccc2n1C1CCN(CCCC(c2ccc(F)cc2)c2ccc(F)cc2)CC1` [Pimozide] + Nc1nc2[nH]cc(CCc3ccc(C(=O)N[C@@H](CCC(=O)O)C(=O)O)cc3)c2c(=O)[nH]1 [Pemetrexed] (partner 0.2 µM) has a relative viability (NCI-H460; first compound 0.8 µM) of 0.0627, a relative viability (NCI-H460; first compound 2.53 µM) of 0.0654 and a relative viability (NCI-H460; first compound 8 µM) of 0.0685. For the same compound, the relative viability (NCI-H1915; first compound 0.08 µM) was 0.482, the relative viability (NCI-H1915; first compound 0.253 µM) was 0.415 and the relative viability (NCI-H1915; first compound 2.53 µM) was 0.448. For the same compound, the relative viability (NCI-H1915; first compound 8 µM) was 0.423, the relative viability (LCLC-97TM1; first compound 0.08 µM) was 0.2 and the relative viability (LCLC-97TM1; first compound 0.253 µM) was 0.177. For the same compound, the relative viability (LCLC-97TM1; first compound 0.8 µM) was 0.19, the relative viability (LCLC-97TM1; first compound 2.53 µM) was 0.18 and the relative viability (LCLC-97TM1; first compound 8 µM) was 0.156. It also gave a relative viability (SK-LU-1; first compound 0.08 µM) of 1.05, a relative viability (SK-LU-1; first compound 0.253 µM) of 0.991 and a relative viability (SK-LU-1; first compound 0.8 µM) of 0.897. It also gave a relative viability (SK-LU-1; first compound 2.53 µM) of 0.853, a relative viability (SK-LU-1; first compound 8 µM) of 0.817 and a relative viability (A-427; first compound 0.08 µM) of 0.992. For the same compound, the relative viability (A-427; first compound 0.253 µM) was 0.979, the relative viability (A-427; first compound 0.8 µM) was 0.928 and the relative viability (A-427; first compound 2.53 µM) was 0.899. The relative viability (A-427; first compound 8 µM) was 0.845, the relative viability (LOU-NH91; first compound 0.08 µM) was 0.389 and the relative viability (LOU-NH91; first compound 0.253 µM) was 0.474. It also gave a relative viability (LOU-NH91; first compound 0.8 µM) of 0.395, a relative viability (LOU-NH91; first compound 2.53 µM) of 0.384 and a relative viability (LOU-NH91; first compound 8 µM) of 0.384. For the same compound, the relative viability (NCI-H2126; first compound 0.08 µM) was 0.65, the relative viability (NCI-H2126; first compound 0.253 µM) was 0.659 and the relative viability (NCI-H2126; first compound 0.8 µM) was 0.637. The relative viability (NCI-H2126; first compound 2.53 µM) was 0.659, the relative viability (NCI-H2126; first compound 8 µM) was 0.652 and the relative viability (NCI-H441; first compound 0.08 µM) was 0.27. For the same compound, the relative viability (NCI-H441; first compound 0.253 µM) was 0.314, the relative viability (NCI-H441; first compound 0.8 µM) was 0.276 and the relative viability (NCI-H441; first compound 2.53 µM) was 0.265. For the same compound, the relative viability (NCI-H441; first compound 8 µM) was 0.238, the relative viability (BEN; first compound 0.08 µM) was 0.856 and the relative viability (BEN; first compound 0.253 µM) was 0.689. It also gave a relative viability (BEN; first compound 0.8 µM) of 0.766, a relative viability (BEN; first compound 2.53 µM) of 0.708 and a relative viability (BEN; first compound 8 µM) of 0.837. For the same compound, the relative viability (NCI-H322M; first compound 0.08 µM) was 0.571, the relative viability (NCI-H322M; first compound 0.253 µM) was 0.668 and the relative viability (NCI-H322M; first compound 0.8 µM) was 0.622. The relative viability (NCI-H322M; first compound 2.53 µM) was 0.604, the relative viability (NCI-H322M; first compound 8 µM) was 0.609 and the relative viability (NCI-H1755; first compound 0.08 µM) was 0.707. It also gave a relative viability (NCI-H1755; first compound 0.253 µM) of 0.423, a relative viability (NCI-H1755; first compound 0.8 µM) of 0.516 and a relative viability (NCI-H1755; first compound 2.53 µM) of 0.389. For the same compound, the relative viability (NCI-H1755; first compound 8 µM) was 0.393, the relative viability (NCI-H1944; first compound 0.08 µM) was 0.68 and the relative viability (NCI-H1944; first compound 2.53 µM) was 0.466. It also gave a relative viability (NCI-H1944; first compound 8 µM) of 0.512.
